Data on 1 molecule can be found in ChEMBL document CHEMBL5365427, “Discovery and Structural Optimization of Covalent ZAP-70 Kinase Inhibitors against Psoriasis” (J Med Chem, 2023).

Assay [1] has as its system Mus musculus. The assay is described as follows: Anti-inflammatory activity in imiquimod-induced BALB/c mouse psoriasis model assessed as reduction in skin inflammation at TOP administration, 2 % applied for 7 days. The assay is classed as functional, organism-based. The conditions noted are these: time 7.0 day.
For assay [2], the target named is Mitogen-activated protein kinase 8 (Homo sapiens) (UniProt P45983). The assay is described as follows: Inhibition of JNK1 (unknown origin) at 1 uM relative to control.
Sequence of Mitogen-activated protein kinase 8 (Homo sapiens) (P45983 whole entry): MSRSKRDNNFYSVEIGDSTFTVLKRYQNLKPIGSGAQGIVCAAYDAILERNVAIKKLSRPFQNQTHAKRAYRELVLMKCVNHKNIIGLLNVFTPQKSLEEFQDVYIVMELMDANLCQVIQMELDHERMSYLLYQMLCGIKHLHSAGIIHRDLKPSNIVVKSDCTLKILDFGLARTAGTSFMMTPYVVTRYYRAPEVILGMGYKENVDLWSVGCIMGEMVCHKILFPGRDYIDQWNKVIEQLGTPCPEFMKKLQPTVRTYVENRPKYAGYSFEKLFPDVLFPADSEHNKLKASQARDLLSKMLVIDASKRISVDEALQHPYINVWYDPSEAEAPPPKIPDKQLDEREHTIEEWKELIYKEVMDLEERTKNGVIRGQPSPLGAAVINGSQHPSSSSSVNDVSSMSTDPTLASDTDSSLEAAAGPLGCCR
A further assay deals with Jurkat. The assay is described as follows: Immunosuppressive activity in anti-CD3/CD28 stimulated human Jurkat cells assessed as reduction in LAT phosphorylation level at 100 to 400 nM incubated for 48 hrs by Western blotting analysis. The format is functional, cell-based. The conditions noted are these: dose 100-400 nM. A general note: In western blotting, separated proteins are transferred to a membrane and probed.

Assay [3] deals with Splenocyte. As to the kind of experiment: Immunosuppressive activity in anti-CD3/CD28 stimulated BALB/c mouse Splenocyte assessed as reduction in IL-17A cytokine level incubated for 48 hrs by ELISA assay. The assay is classed as functional, cell-based.
Assay [4] concerns Splenocyte. As to the kind of experiment: Immunosuppressive activity in LPS-induced BALB/c mouse Splenocyte assessed as effect on CD69 expression at 100 to 400 nM incubated for 48 hrs by flow cytometry analysis. The format is functional, cell-based. The following applies: dose 100-400 nM. A general note: In flow cytometry, cells or beads pass a laser one at a time.
In assay [5] the test system is Mus musculus. As to the kind of experiment: Anti-inflammatory activity in imiquimod-induced BALB/c mouse psoriasis model assessed as […] in skin thickness at TOP administration, 2 % applied for 7 days by hematoxylin and eosin staining based assay. The assay is classed as functional, organism-based. The conditions noted are these: time 7.0 day.
The target of assay [6] is T1, Tyrosine-protein kinase ZAP-70 (Homo sapiens) (UniProt P43403).
T1 sequence (whole entry): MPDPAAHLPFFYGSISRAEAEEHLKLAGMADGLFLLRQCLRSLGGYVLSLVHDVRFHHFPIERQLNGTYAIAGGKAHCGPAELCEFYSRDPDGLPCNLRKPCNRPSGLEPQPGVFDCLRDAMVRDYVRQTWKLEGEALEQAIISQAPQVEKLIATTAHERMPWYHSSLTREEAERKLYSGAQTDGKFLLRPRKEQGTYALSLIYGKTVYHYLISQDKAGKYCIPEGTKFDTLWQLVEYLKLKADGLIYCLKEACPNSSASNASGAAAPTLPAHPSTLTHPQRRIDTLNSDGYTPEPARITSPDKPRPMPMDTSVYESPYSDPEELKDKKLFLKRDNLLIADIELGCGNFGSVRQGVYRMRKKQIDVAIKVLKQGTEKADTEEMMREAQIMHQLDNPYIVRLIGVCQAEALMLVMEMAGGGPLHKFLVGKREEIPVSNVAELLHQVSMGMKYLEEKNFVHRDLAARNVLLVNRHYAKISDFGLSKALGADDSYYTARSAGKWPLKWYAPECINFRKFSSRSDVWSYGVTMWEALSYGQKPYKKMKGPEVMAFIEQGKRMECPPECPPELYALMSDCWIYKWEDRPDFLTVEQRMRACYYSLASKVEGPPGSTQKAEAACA
As to the kind of experiment: Inhibition of ZAP-70 (unknown origin) at 1 uM relative to control.

For assay [7], the target named is T2, Bone morphogenetic protein receptor type-2 (Homo sapiens) (UniProt Q13873).
T2 sequence (whole entry): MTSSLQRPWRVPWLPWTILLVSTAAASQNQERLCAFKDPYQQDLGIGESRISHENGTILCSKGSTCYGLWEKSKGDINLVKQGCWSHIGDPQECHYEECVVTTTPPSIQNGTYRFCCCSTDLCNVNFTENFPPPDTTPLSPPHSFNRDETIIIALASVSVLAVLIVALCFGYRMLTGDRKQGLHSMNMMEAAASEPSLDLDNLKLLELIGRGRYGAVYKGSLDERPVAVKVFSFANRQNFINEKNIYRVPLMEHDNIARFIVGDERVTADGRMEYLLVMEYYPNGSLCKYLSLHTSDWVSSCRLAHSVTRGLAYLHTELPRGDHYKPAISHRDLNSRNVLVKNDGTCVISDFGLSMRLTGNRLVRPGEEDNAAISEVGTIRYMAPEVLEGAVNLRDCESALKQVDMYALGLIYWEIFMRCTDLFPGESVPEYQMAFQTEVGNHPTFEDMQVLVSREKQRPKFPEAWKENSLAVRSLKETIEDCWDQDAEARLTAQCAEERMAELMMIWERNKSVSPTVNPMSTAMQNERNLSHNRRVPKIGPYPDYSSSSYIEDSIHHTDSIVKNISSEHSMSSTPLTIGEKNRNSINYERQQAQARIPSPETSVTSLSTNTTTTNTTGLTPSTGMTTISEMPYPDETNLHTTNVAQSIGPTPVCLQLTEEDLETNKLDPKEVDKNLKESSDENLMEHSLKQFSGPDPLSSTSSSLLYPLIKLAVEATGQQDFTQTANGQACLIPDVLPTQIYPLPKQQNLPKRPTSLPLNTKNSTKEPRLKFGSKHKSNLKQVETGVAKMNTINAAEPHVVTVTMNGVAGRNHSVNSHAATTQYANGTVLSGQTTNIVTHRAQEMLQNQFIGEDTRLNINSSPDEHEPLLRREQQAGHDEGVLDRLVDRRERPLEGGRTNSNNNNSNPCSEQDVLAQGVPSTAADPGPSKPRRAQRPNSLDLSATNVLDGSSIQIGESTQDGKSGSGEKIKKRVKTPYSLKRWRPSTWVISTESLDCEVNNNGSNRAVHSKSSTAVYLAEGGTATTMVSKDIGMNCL
The assay is described as follows: Inhibition of BMPR2 (unknown origin) at 1 uM relative to control.

Assay [8] concerns the target T3, Tyrosine-protein kinase ZAP-70 (Homo sapiens, UniProt P43403).
T3 sequence (P43403 whole entry): T1 sequence (whole entry)
The assay is described as follows: Inhibition of ZAP-70 (unknown origin) using ULight-TK peptide as substrate incubated for 120 mins in presence of ATP by Lance Ultra Kinase assay.

In assay [9] the test system is Splenocyte. The assay is described as follows: Immunosuppressive activity in BALB/c mouse Splenocyte assessed as reduction in frequency of CD25 positive CD4 positive T cells at 100 to 400 nM incubated for 48 hrs by flow cytometry analysis. The conditions noted are these: dose 100-400 nM. The assay is classed as functional, cell-based.
Assay [10] addresses Mitogen-activated protein kinase 10 (Homo sapiens) (UniProt P53779). The assay is described as follows: Inhibition of JNK3 (unknown origin) at 1 uM relative to control.
Assay [11] concerns Splenocyte. As to the kind of experiment: Immunosuppressive activity in anti-CD3/CD28 stimulated BALB/c mouse Splenocyte assessed as reduction in IFN-gamma cytokine level incubated for 48 hrs by ELISA assay. The assay is classed as functional, cell-based. For orientation: An ELISA detects its analyte on a solid surface through an enzyme-linked reagent.
Assay [12] concerns the target Tyrosine-protein kinase receptor UFO (Homo sapiens) (UniProt P30530). The assay is described as follows: Inhibition of AXL (unknown origin) at 1 uM relative to control.
In assay [13] the test system is Splenocyte. The assay is described as follows: Immunosuppressive activity in BALB/c mouse Splenocyte assessed as inhibition of concanavalin A induced T-cell proliferation incubated for 48 hrs by [3H]-thymidine incorporation based beta scintillation counter analysis. The format is functional.
Assay [14] concerns the target Mitogen-activated protein kinase 9 (Homo sapiens) (UniProt P45984). As to the kind of experiment: Inhibition of JNK2 (unknown origin) at 1 uM relative to control.
Assay [15] has as its system Splenocyte. As to the kind of experiment: Immunosuppressive activity in BALB/c mouse Splenocyte assessed as reduction in frequency of CD69 positive CD4 positive T cells at 400 nM incubated for 48 hrs by flow cytometry analysis (reference value: 21.3%). The format is functional. More on the design: scale not given: the % may be the effect or the level left.
Assay [16] deals with Mus musculus. The assay is described as follows: Anti-inflammatory activity in imiquimod-induced BALB/c mouse psoriasis model assessed as reduction in immune cell infiltration at TOP administration, 2 % applied for 7 days by hematoxylin and eosin staining based assay. The format is functional, organism-based. The following applies: time 7.0 day.
Assay [17] concerns the target Tyrosine-protein kinase SYK (Homo sapiens, UniProt P43405). The assay is described as follows: Inhibition of SYK (unknown origin) using ULight-TK peptide as substrate incubated for 120 mins in presence of ATP by Lance Ultra Kinase assay.

Calls of active or inactive are those of the source. No cut-off for these calls is given here.

Sequence of Tyrosine-protein kinase receptor UFO (Homo sapiens) (P30530 whole entry): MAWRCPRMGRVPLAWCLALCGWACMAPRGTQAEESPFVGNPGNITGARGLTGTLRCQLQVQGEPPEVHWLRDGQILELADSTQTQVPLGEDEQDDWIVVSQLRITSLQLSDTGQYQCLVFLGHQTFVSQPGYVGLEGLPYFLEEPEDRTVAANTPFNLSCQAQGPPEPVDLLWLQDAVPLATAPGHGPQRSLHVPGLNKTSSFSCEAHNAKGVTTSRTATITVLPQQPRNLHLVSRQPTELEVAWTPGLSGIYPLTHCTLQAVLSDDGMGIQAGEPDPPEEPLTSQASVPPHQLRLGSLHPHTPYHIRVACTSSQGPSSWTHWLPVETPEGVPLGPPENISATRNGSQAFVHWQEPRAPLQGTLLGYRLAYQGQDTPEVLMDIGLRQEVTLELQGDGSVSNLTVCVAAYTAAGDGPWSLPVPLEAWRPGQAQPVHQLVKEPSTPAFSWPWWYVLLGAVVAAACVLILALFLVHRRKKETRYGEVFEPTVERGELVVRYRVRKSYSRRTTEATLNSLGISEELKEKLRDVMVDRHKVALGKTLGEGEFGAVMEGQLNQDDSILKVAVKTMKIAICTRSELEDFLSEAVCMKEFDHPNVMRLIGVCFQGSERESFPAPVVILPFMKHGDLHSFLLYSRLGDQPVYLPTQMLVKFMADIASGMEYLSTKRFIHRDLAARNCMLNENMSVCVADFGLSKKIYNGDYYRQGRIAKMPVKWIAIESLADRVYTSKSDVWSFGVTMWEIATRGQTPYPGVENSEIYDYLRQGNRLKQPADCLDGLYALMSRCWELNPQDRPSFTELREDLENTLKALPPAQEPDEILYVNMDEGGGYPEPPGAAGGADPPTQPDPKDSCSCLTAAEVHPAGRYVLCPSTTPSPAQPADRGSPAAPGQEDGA
Sequence of Mitogen-activated protein kinase 10 (Homo sapiens) (P53779 whole entry): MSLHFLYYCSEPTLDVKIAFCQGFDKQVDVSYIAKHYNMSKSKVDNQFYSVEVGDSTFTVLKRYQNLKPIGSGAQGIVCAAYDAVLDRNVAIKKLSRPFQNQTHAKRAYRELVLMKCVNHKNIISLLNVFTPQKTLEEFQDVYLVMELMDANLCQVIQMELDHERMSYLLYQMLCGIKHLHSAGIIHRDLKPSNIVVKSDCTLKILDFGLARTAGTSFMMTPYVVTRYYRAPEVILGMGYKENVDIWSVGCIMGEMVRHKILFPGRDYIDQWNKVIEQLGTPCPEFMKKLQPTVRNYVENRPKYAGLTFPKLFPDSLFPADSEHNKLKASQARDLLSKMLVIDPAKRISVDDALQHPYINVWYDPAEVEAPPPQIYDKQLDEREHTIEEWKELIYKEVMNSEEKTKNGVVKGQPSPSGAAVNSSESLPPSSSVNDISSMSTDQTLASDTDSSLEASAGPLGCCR
Sequence of Mitogen-activated protein kinase 9 (Homo sapiens) (P45984 whole entry, looked up): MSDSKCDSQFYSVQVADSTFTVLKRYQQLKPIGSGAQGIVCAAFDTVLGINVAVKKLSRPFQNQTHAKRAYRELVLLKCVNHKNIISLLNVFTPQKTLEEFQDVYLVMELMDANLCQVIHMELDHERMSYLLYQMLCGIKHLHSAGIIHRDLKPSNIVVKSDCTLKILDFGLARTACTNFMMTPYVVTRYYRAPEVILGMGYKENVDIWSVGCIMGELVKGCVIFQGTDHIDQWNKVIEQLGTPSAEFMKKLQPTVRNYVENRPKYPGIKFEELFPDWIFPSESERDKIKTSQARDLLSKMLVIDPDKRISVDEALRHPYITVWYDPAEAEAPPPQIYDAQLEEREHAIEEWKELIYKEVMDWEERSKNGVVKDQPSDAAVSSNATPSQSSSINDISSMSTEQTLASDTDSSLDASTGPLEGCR

Turning to `C=CC(=O)Nc1cc(CNc2nc(Nc3ccc(N4CCOCC4)c(OC)c3)c(C(N)=O)c3nccn23)ccc1Cl`, the result with Mus musculus [1], with Jurkat, in the assay on Mus musculus [5], in the assay on Splenocyte [9] and in the assay with Mus musculus [16] was Active. The inhibition (as a rule, the relative decrease from the control value, in per cent) is greater than 90% in assay [2]; 98.3% in assay [6]; greater than 90% in assay [7]; greater than 90% in assay [10]; greater than 90% in assay [12]; greater than 90% in assay [14]. For the same molecule, the Activity entry in the assay with Splenocyte [3] was “Dose-Dependent Effect”; with Splenocyte [11], “Dose-Dependent Effect”; in the assay with Splenocyte [15] it was 10.8%. Also, the result in the assay with Splenocyte [4] was inactive. The results for the IC50 (in [8]; in the assay with Splenocyte [13]; in [17]) were 14.6 nM, 64 nM and 1160 nM, respectively.
